# Measured values published in US20260287586A1, “METHODS OF TREATING TKI-RESISTANT AND SDH-DEFICIENT GIST” (priority 2023, published 2026).
# Like-named read-outs stand apart in the source and are kept apart here.
# Experiments:
# SDH-deficient GIST = assay: Phase 1 trial HQP1351-SJ-0003: antitumor efficacy per RECIST v1.1 in SDH-deficient GIST subgroup; assay type: in vivo, human
# Description: NCT03594422). The dose escalation aspect of the study enrolled patients with advanced and/or metastatic GIST or other solid tumors that were refractory or had relapsed after treatment with at least one TKI. […] All AEs were graded according to the US National Cancer Institute (NCI) Common Terminology Criteria for Adverse Events (CTCAE; version 4.03). […] Urinalysis, coagulation, cardiac troponin I/T, lipase, amylase, and electrocardiograms were done at baseline; during cycles 1 and 2 (on days 1 and 15); cycle 3, 5, 7, and 9; every 3 cycles after cycle 9 (on day 1); and 14 days after the last dose of treatment. All patients underwent tumor imaging for response assessment via computed tomography or magnetic resonance imaging at screening and every two cycles (8 weeks) until progression or discontinuation. Target and nontarget lesions were assessed per Response Evaluation Criteria in Solid Tumors version 1.1 (RECIST v1.1). CBR was defined as the proportion of patients with a confirmed CR or PR of any duration or SD for at least 16 weeks from the start of treatment (CBR=CR+PR+SD≥16 weeks). ORR was defined as the proportion of patients with a confirmed CR or PR of any duration (ORR=CR+PR). PFS was defined as the time from the start of treatment to the date of first documented disease progression or death due to any cause, whichever occurred first. OS was defined as the time from start of treatment until the date of death. We evaluated antitumor activity in patients from the SDH-deficient GIST population who had at least one postbaseline disease assessment. We used Kaplan-Meier methods to estimate PFS, and OS; corresponding 95% CIs are provided. Efficacy results for patients with SDH-deficient GIST are reported separately. All statistical analyses were performed with SAS (version 9.3 or higher; SAS Institute, Cary, NC).
# [1] = for AUClast: fed, Day 27 steady state, mean (SD)
# Procedure: Noncompartmental pharmacokinetic (PK) analysis was conducted using Phoenix WinNonlin software (Version 6.4).
# [2] = tested on: oncogenic signaling proteins in SDHB KD PC12 #5F7 cells; assay: Western blot analysis of oncogenic signaling proteins; assay type: cell-based, rat
# Procedure: Cells were extracted from SDH-deficient patient tumor tissues, seeded into 96-well plates, and incubated for 24 hours in GIST culture medium. […] Right panel, Colony formation assay in renal carcinoma cells 7860 (SDHB-wild-type) and OS-RC-2 (SDHB-deficient). Cells were seeded into 6-well plates and incubated overnight in complete culture medium.
# Harvested cells treated with dimethyl sulfoxide (DMSO) or indicated concentrations of compounds were lysed in radio-immunoprecipitation (RIPA) buffer (#P0013, Beyotime, China) containing a protease inhibitor cocktail (#20104ES08, Yeasen Biotechnology Co., Ltd., Shanghai) and a phosphatase inhibitor (#20109-A, #20109-B, Yeasen). Equal amounts of protein were separated by 4-20% sodium dodecyl sulfate polyacrylamide gel electrophoresis (SDS-PAGE) and transferred to nitrocellulose membranes. After being blocked with 3% bovine serum, membranes were incubated with primary antibodies, followed by horseradish peroxidase (HRP)-conjugated secondary antibody (#7074, anti-rabbit IgG, CST; #7076, anti-mouse IgG, CST). Finally, bound secondary antibodies were visualized using an ECL Western Blotting Detection Kit (Yeasen). […]
# [3] = tested on: BCL-XL and MCL-1 protein expression; assay: Mechanism study: BCL-XL and MCL-1 protein expression; assay type: cell-based; conditions: possibly via inhibition of KIT signal pathway and STAT3
# Description: Therefore, selective inhibition of BCL-2, aided by TKI-mediated MCL-1 and BCL-XL inhibition, markedly augmented cleavage of caspase-3 and poly(ADP-ribose) polymerase 1 (PARP-1), thus triggering apoptosis and subsequently enhancing antitumor effects.
structure (smiles),measurement,setting,value
"Cc1ccc(C(=O)Nc2ccc(CN3CCN(C)CC3)c(C(F)(F)F)c2)cc1C#Cc1cnc2[nH]ncc2c1 [Olverembatinib, olverembatinib]",overall survival rate,SDH-deficient GIST; SDH-deficient GIST cohort at data cut-off,100%
same,complete response (CR),"SDH-deficient GIST; SDH-deficient GIST subgroup, 26 evaluable patients",No patient experienced a complete response
same,confirmed overall responses per RECIST v1.1,"SDH-deficient GIST; SDH-deficient GIST subgroup, median follow-up 17.0 months",6 of 26 evaluable patients
same,median progression-free survival (PFS),"SDH-deficient GIST; SDH-deficient GIST, Kaplan-Meier estimate, RECIST v1.1",25.7 months
same,AUClast,"[1]; 20 mg QOD oral, 2 subjects",228 ± 6.4 h*ng/m
same,AUClast,"[1]; 30 mg QOD oral, 4 subjects",307 ± 121 h*ng/m
same,AUClast,"[1]; 40 mg QOD oral, 15 subjects",473 ± 177 h*ng/m
same,AUClast,"[1]; 50 mg QOD oral, 3 subjects",518 ± 174 h*ng/m
same,accumulation after multiple-dose administration,[1]; 20 to 50 mg QOD,no significant accumulation
same,dose proportionality of Cmax and AUClast,[1]; dose range of 20 to 50 mg,approximately dose-proportional increase
same,"effect on HIF-1α, HIF-2α, VEGFA, FGFR1, IGF-1R, p-FGFR1, p-IGF-1R, STAT3, p-STAT3, Src and downstream AKT, ERK1/2","[2]; 24 h treatment, FIG. 2C",dose-dependently inhibited
same,cleavage of caspase-3 and poly(ADP-ribose) polymerase 1 (apoptosis induction),[2]; tumor cell lines treated with olverembatinib,Increased cleavage of caspase-3 and poly(ADP-ribose) polymerase 1
same,effect on BCL-XL and MCL-1 protein expression,[3],downregulate BCL-XL and MCL-1 protein expression
